Data taken from patent US9000027B2, “Chk1 suppresses a caspase-2 apoptotic response to DNA damage that bypasses p53, bcl-2 and caspase-3” (Dana-Farber Cancer Institute, Inc., priority 2008, dated 2015).

Key:
MK-2 [1] = target: T1, MK-2 (Homo sapiens, UniProt P49137); experiment: Western blot of MK-2 activity (Hsp-27 Ser82 phosphorylation) in irradiated HeLa cells; type: cell-based; design: endogenous in cells; host or cells: HeLa; conditions: irradiated HeLa cells, increasing concentrations of SB203580
Protocol: Protein extract (5-60 μg) was added to 4× gel loading buffer and 10× denaturing solution (Invitrogen) in appropriate proportions, and samples were incubated at 70° C. for 10 min. Samples were run at 200V for 1 hr on a 4-12% Bis-tris gradient gel (Invitrogen). After electrophoresis, samples were transferred for 1.5 hr (350 mA) to a Nitrocellulose membrane (Millipore) using a submerged transfer apparatus (Bio-Rad). Membranes were then blocked with 5% milk in Tris-buffered saline with 0.1% tween (TBST) and probed overnight at 4° C. with the following antibodies: anti-zebrafish Chk1 (diluted 1:200), anti-zebrafish Chk2 (1:200), anti-P-Cdc2 (1:1000), anti-actin (1:2000), anti-human ATR (1:500) and Stressgen anti-human-caspase-3 (1:500) for zebrafish immunoblots; and anti-caspase-2 (1:200), Upstate anti-caspase-3 (1:500), anti-P-ATM (1:500), anti-ATM (1:500), Santa Cruz anti-human Chk1 (1:1000), Santa Cruz anti-human Chk2 (1:1000), anti-P-Chk1 (1:500), anti-P-Chk2 (1:500), anti-P-H2A.X (1:2000), anti-P-cdc25C (1:1000), anti-P-HSP27 (1:1000), anti-HSP27 (1:1000), anti-P-Cdc2 (1:1000), anti-p53 (1:1000) and anti-GAPDH (1:5000) for immunoblots of human tumor cell lysates. Detailed references for all primary antibodies can be found in the ‘Antibodies’ section elsewhere herein.
Target sequence in this assay (P49137 whole entry): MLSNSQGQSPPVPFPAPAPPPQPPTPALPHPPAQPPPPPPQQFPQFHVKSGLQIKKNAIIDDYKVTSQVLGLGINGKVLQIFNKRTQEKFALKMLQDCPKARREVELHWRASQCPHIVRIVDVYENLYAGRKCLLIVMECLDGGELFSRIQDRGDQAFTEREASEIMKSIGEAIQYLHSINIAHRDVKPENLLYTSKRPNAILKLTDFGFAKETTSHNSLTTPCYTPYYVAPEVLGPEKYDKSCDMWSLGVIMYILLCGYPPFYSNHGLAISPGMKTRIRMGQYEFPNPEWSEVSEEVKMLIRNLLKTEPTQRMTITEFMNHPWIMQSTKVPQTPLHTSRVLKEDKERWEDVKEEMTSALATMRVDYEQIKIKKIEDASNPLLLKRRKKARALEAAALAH

p53 mutant embryos = experiment: Live acridine orange (AO) assay of IR-induced cell death in inhibitor-treated p53 mutant embryos; type: in vivo, zebrafish; conditions: 12.5 Gy at 18 hpf; Gö6976 1 μM, KU55933 10 μM, Chk2 Inhibitor II 10 μM; 6 hr
Source text: (§1) Chk1 inhibitors hold considerable promise in cancer therapy, as they are expected to synergize with genotoxic agents to kill tumor cells lacking functional p53, without affecting normal cells (Kawabe, 2004; Zhou and Bartek, 2004). […] Gö6976 has not been tested in vivo in a vertebrate model system. We therefore evaluated it as well as specific Chk2 and ATM inhibitors in the zebrafish system. Drug toxicity was monitored by scoring the AO reactivity of inhibitor-treated, but non-irradiated, p53^+/+ embryos (left column in FIG. 8A). Unless otherwise indicated, the inhibitors were applied at 18 hpf (that is, immediately before IR) for a total of 6 hours.
Live zebrafish embryos were dechorionated in pronase (2.0 mg/mL in egg water) for 3 to 5 min and rinsed five times in egg water at 18 hpf. Embryos were then γ-irradiated (12.5 Gy) using a ^137Cs-irradiator (Gammacell 1000) at 18 hr post-fertilization (hpf). At 24 hpf, embryos were incubated in […] Acridine Orange (AO; Sigma A-6014) in egg water for 30 min at 28.5° C., followed by 3 quick rinses and three 10-min washes in egg water. 5-10 AO-treated embryos were anesthetized in Tricaine ([…]; 3-amino benzoic acid ethylester from Sigma, A-5040) and mounted laterally on a glass slide in warm 0.5% agarose in egg water by streaking a thin layer of the warm agarose across the surface of the slide, and gently pulling the embryos across the agar with a transfer pipette. Lateral images of each zebrafish were acquired on a Zeiss Axioplan2 fluorescence microscope (5× lens), using OpenLab software and a Hammamatsu C4742-95 digital camera. All images were then converted to 8-bit grayscale in NIH ImageJ using the Image>Type>8-bit command. Next, we cropped the images using the Polyonal Selection tool and the Image>Crop functions to include only the trunk of the animal from the head until the beginning of the yolk tube (MO screen; FIG. 1B) or along the entire spinal cord (epistasis analyses; FIGS. 6A & 6D). The area outside of the selected region of interest was cleared using the Edit>Clear Outside command to create a distinct boundary around the area of interest (this is important as it allows the area of interest to be precisely selected after applying the threshold). Next, we split the acquired images into features of interest and background using the Image>Adjust>Threshold function in NIH ImageJ. We then set the maximum threshold of each image to 255 (the lower slide bar in the Threshold window), and adjusted the minimum threshold to the optimized threshold (see below). The threshold was applied using the Black & White display option, with the following Lut options applied; Thresholded pixels to foreground color; Remaining pixels to background color and Black foreground, white background. […] Next, we re-selected the region of interest on the thresholded image, following the bounded image carefully, and analyzed the pixels of the image using the Analyze>Analyze Particles function. The Minimum Size was set to 1px, the Maximum Size was set to the maximum value of 999999 and the Masks option was selected under the Show pull-down menu. The following extended options were also selected: Display Results; Clear Results; Summarize, Size Distribution and Record Starts. If selected by default, the Exclude on Edges option was deselected. The Area Fraction for each image selection was taken from the Summary window, which is the percentage of pixels in the selection that were black. To ensure valid comparisons of the AO labeling results across all experiments, we quantitatively determined a baseline Area Fraction across a large set of simultaneously irradiated and processed p53^+/+ embryos. […] This analysis yielded a mean value for the total labeled surface area of ˜20% (see FIG. 1B, light gray bar). We included at least 6 p53^+/+ non-injected control embryos in all subsequent AO-labeling experiments. […]

p53^+/+ embryos = experiment: Drug toxicity: AO reactivity and development of inhibitor-treated, non-irradiated p53+/+ embryos; type: in vivo, zebrafish; conditions: 0 Gy; Gö6976 1 μM, KU55933 10 μM, Chk2 Inhibitor II 10 μM
Source text: as §1
Immediately before IR, 18-hpf embryos were dechorionated and transferred to fresh egg water containing 1% DMSO, with or without the following inhibitors at indicated final concentrations: KU55933 (10 μM; Sigma) (Hickson et al., 2004); Chk2 Inhibitor II (10 μM; Calbiochem) (Arienti et al., 2005); Gö6976 (1 μM; Calbiochem) (Kohn et al., 2003). Unless stated otherwise, embryos were exposed to the inhibitors for 6 hr, transferred to fresh egg water, rinsed five times for 5 min, and labeled with AO. For experiments with Tg(rag2:EGFP-bcl-2) larvae, larvae were incubated in the inhibitor solution at 4 dpf, irradiated at 5 dpf, rinsed at 6 dpf, incubated in fresh inhibitor for an additional 72 hr, and mounted live at 9 dpf for fluorescence microscopic analysis of EGFP expression.

MK-2 [2] = target: T1, MK-2; conditions: concentration initially thought to specifically inhibit Chk1; cited from earlier work
Target sequence in this assay (P49137 whole entry, species assumed): as the sequence (P49137 whole entry) above

Chk1 = target: T2, Chk1 (Homo sapiens, UniProt O14757); conditions: concentration initially thought to specifically inhibit Chk1; cited from earlier work
T2 sequence (O14757 1-476): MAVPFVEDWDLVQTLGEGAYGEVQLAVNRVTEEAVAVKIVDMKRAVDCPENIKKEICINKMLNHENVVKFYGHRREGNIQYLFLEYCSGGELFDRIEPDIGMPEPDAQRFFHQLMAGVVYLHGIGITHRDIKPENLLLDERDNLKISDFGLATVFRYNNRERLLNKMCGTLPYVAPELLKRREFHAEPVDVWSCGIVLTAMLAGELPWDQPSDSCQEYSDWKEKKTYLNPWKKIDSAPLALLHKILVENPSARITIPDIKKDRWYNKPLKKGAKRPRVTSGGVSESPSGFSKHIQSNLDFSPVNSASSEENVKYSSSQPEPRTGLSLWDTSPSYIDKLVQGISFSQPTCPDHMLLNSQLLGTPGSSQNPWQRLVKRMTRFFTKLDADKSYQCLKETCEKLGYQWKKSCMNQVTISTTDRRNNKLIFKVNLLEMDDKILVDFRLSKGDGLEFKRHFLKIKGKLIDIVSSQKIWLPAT

p53^e7/e7 mutant embryos = experiment: Morpholino screen for suppressors of p53^e7/e7 radioresistance (live AO assay); type: in vivo, zebrafish; conditions: p53^e7/e7, 12.5 Gy
Protocol: We used morpholino antisense oligonucleotides (MOs) to knock down the expression levels of 8 zebrafish S- and G2-checkpoint kinases in p53^e7/e7 mutant embryos and assessed the ability of each knockdown to restore cell death (AO reactivity) at 7.5 hours post-IR (hpIR). We also tested several double-knockdown combinations, as well as knockdowns of non-kinase checkpoint regulators (p21^waf1/cip1 and smc1). For each knockdown, we scored a minimum of 50 embryos and quantified AO staining in at least 5 embryos. To avoid the isolation of false-positives, we adjusted the concentrations of each MO to the maximal dose compatible with normal embryonic development in the p53^e7/e7 background.
Morpholino oligonucleotides (MOs) synthesized by Gene Tools™ LLC, were resuspended in sterile water at a concentration of 1 mM and delivered into zebrafish embryos at the one-cell stage by microinjection. […] For each previously unpublished MO, the working concentration was determined as the highest dose compatible with normal zebrafish development in the p53^e7/e7 background (maximal subtoxic concentration). […]
Live zebrafish embryos were dechorionated in pronase (2.0 mg/mL in egg water) for 3 to 5 min and rinsed five times in egg water at 18 hpf. […] Lateral images of each zebrafish were acquired on a Zeiss Axioplan2 fluorescence microscope (5× lens), using OpenLab software and a Hammamatsu C4742-95 digital camera. […]

With C[S+]([O-])c1ccc(-c2nc(-c3ccncc3)c(-c3ccc(F)cc3)[nH]2)cc1 (centres unmarked) [SB203580] the “phosphorylated Hsp-27 at Ser82 versus native Hsp-27” value (MK-2 [1]) was “reduction in the abundance of phosphorylated Hsp-27 at Ser82”.
In the case of O=c1cc(-c2cccc3c2Sc2ccccc2S3)oc(N2CCOCC2)c1 [KU55933], the “radiosensitization of p53 mutants (IR-induced AO labeling)” value (p53 mutant embryos) is reported as “only modestly radiosensitized” and the “toxicity of the dose used (AO reactivity of non-irradiated embryos)” value (p53^+/+ embryos) is reported as “relatively toxic”.
For CN[C@@H]1C[C@H]2O[C@@](C)([C@@H]1OC)n1c3ccccc3c3c4c(c5c6ccccc6n2c5c31)C(=O)N[C@H]4O [UCN-01, 7-hydroxystaurosporine], the MK-2 inhibition (MK-2 [2]) is listed as “inhibits both Chk1 and MK-2” and the Chk1 inhibition (Chk1) is listed as “inhibits both Chk1 and MK-2”.
With “chk1 mismatch MO: 5 base-pair mismatch version of chk1 MO, agCcaGagcGattatCcaatGttcg (SEQ ID NO: 12) (AGCCAGAGCGATTATCCAATGTTCG; all phosphorodiamidate morpholino (PMO))” the “radiosensitization of p53 mutants” value (p53^e7/e7 mutant embryos) was “failed to radiosensitize p53 mutants”.
In the case of NC(=O)c1ccc2nc(-c3ccc(Oc4ccc(Cl)cc4)cc3)[nH]c2c1 [Chk2 Inhibitor II], the “radiosensitization of p53 mutants (IR-induced AO labeling)” value (p53 mutant embryos) is reported as “only modestly radiosensitized” and the “toxicity of the dose used (AO reactivity of non-irradiated embryos)” value (p53^+/+ embryos) is reported as “relatively toxic”.
